Measured values published in patent publication US5166066A (priority 1991, dated 1992).

Legend:
[1] = molecular target: T1, GABAA receptor-Cl- channel complex composed of rat α1, β2, γ2 subunits (Rattus norvegicus, UniProt P18508+P62813+P63138); assay: whole-cell patch clamp of GABA-mediated Cl- currents in transfected HEK 293 cells; format: cell-based; conditions: cell line 2C-1C, HEK 293, holding potential -60 mV
T1 construct: expressed in transfected cells

[2] = tested on: recombinant receptors composed of α6 -, β2 - and β2-subunits; conditions: transiently expressed in cultured mammalian cells; cited from earlier work
[3] = tested on: α1 - and β1 -subunits of the bovine brain GABAA receptor; conditions: CHO cells, dexamethasone-inducible promoter; cited from earlier work

T1 sequence (P62813 28-455): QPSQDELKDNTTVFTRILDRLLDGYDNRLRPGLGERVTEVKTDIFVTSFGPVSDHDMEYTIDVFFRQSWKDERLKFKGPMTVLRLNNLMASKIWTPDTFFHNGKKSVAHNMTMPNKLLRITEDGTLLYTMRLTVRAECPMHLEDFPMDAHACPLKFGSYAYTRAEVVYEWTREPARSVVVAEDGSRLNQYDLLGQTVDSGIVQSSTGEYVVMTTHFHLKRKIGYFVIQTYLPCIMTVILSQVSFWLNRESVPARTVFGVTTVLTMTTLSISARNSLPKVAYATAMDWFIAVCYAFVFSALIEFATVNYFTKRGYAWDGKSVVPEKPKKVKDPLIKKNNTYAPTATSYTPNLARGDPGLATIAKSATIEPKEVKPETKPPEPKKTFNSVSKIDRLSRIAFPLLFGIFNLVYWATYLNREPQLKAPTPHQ
T1 sequence (P63138 26-474): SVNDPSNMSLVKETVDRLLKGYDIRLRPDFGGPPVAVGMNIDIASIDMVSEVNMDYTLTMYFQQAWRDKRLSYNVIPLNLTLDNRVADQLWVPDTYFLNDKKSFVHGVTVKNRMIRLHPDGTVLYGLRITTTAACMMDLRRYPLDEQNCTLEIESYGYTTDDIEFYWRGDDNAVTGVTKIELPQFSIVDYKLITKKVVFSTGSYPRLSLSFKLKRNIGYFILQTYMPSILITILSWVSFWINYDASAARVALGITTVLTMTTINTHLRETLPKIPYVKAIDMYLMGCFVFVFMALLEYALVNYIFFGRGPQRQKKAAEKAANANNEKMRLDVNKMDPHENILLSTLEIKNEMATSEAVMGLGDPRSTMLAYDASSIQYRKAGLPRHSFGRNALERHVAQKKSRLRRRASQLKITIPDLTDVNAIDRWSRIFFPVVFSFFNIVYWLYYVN
T1 sequence (P18508 39-466): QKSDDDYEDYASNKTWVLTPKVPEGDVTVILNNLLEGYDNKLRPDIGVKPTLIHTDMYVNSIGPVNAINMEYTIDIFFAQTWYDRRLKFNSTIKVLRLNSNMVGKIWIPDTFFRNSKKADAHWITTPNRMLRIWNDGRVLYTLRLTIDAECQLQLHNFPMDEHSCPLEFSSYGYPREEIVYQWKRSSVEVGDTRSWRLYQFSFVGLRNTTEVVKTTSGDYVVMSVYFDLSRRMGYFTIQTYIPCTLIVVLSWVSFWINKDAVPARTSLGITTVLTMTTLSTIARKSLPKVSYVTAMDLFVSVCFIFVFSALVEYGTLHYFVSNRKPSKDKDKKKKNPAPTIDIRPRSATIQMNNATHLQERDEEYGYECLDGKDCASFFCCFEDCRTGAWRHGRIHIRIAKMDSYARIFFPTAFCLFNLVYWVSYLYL

With NCCCC(=O)O [GABA, γ-Aminobutyric acid] as the compound, how does the “response of cells to drug (Cl- current)” value [1] read?
Its value is “responsive”.

Which “binding affinity to recombinant receptors” value (“binding affinity” below) [2] does the source give for CCOC(=O)c1ncn2c1CN(C)C(=O)c1cc(F)ccc1-2 [Ro15-1788] here?
The value was “high affinity”.

With NCc1cc(=O)[nH]o1 [muscimol] as the compound, how does the “binding affinity” value [2] read?
Its value is “high affinity”.

With picrotoxin as the compound, how does the “effect on current response of α1β1 GABAA receptors” value [3] read?
The value was “reversibly blocked”.

For CCOC(=O)c1ncn2c1CN(C)C(=O)c1cc(N=[N+]=[N-])ccc1-2 [Ro15-4513], which “binding affinity” value [2] is on record?
The value was “high affinity”.

For CN1CCc2cc3c(cc2[C@H]1[C@@H]1OC(=O)c2c1ccc1c2OCO1)OCO3 [bicuculline], which “effect on current response of α1β1 GABAA receptors” value [3] is on record?
The value was “reversibly blocked”.
